Patent US20070213359A1 (ACADIA Pharmaceuticals Inc., priority 2005, published 2007)
Where two headings read alike, the source gives them in different places.

Experiments:
[1] = target: T1, GHSR1a receptor (Homo sapiens, UniProt Q92847); assay: 125I-Ghrelin binding assay
T1 construct: expressed in transfected cells; host or cells: HEK293 (membranes)
Method: Plasmid DNA containing the GHSR1a receptor (12.5 ug/dish) in 0.675 ml DMEM was transfected into the cells by mixing with 180 ul PolyFect, 15 min later mixing in 2.25 ml 10% CS/DMEM, and transferring the mixture into the dish. At 16-18 h post transfection, medium was replaced with 25 ml fresh 10% FCS/1% PSG/DMEM to each dish for another 18-20 h. At approximately 48 hours post-transfection, cells were harvested in ice-cold membrane buffer (20 mM HEPES, 6 mM MgCl2, 1 mM EDTA, pH to 7.2) using a cell scraper, and pelleted by centrifugation.
Pelleted cells were added to a nitrogen cavitation chamber and 900 bar of pressure applied for 30 min. The pressure was slowly released the cavitated cells collected in 50 ml falcon tubes. The tubes were centrifuged at 1000 rpm, 4° C. for 10 min, and the supernatant collected. This centrifugation and collection was repeated two more times until the supernatant was free of precipitate (membranes are still in suspension). The supernatant was poured into a 50 ml centrifuge tube and centrifuged at 10.000 rpm, 4° C. for 20 min. The supernatant was discarded and the pellet re-suspended in 750 μl membrane binding buffer using a chilled 1 ml syringe with 25G5/8 needle to re-suspend membranes. The protein concentration was determined using the BioRad Protein Assay Dye Reagent according to the manufacturers instructions. The protein concentration was adjusted to 5 mg/ml and aliquots snap-frozed and stored at −80 C until use.
Membranes were thawed rapidly; diluted with binding buffer (25 mM Hepes+5 mM MgCl2, 1 mM CaCl2, 2.5 mM EDTA and 0.2% BSA) to a protein concentration of 0.8 ug/30 ul and placed on ice. 96-well plates (U-bottom wells) were prepared with serial dilutions (8 doses, 40 ul/w) of the test compounds. Membranes (30 uL/well) were then added, and incubated with test ligands for 30 min at room temperature with shaking. […] Binding was terminated by filtration through GF/B filters (presoaked with 0.1% polyethylenimine) with a Brandel 96-well harvester. The filters were washed with ice-cold binding buffer (150 ml/plate) and allowed to air-dry for 30 min. 50 ul MicroScient-20 cocktail was added to each dried well, the plates were sealed, and counted for 2 min/well using a TopCount scintillation counter (Packard).

[2] = target: Ghrelin receptor (Homo sapiens, UniProt Q92847); assay: Receptor Selection and Amplification Technology (R-SAT) assay; assay type: cell-based; design: expressed in transfected cells; host or cells: NIH3T3; conditions: for Emax: read-out: RSAT Eff(%)
[3] = Binding pKi, displacement of 125I-ghrelin (0.053 nM), membranes of HEK293 cells transfected with GHSR1a, Cheng-Prussoff, '—' not defined
[4] = […], '—' not defined (nd used separately), read-out: RSAT pIC50 (converted)
[5] = displacement of 125I-ghrelin (0.053 nM), membranes of HEK293 cells transfected with GHSR1a, Cheng-Prussoff, '—' not defined, read-out: Binding pKi (converted)
[6] = negative logarithm of ligand concentration causing 50% inhibition of constitutive receptor response, transfected NIH3T3 cells, '—' not defined (nd used separately), read-out: RSAT pIC50 (converted)
[7] = percent inhibition at saturating ligand, normalized to reference ligand Substance P analog = 100%

T1 sequence (Q92847 whole entry): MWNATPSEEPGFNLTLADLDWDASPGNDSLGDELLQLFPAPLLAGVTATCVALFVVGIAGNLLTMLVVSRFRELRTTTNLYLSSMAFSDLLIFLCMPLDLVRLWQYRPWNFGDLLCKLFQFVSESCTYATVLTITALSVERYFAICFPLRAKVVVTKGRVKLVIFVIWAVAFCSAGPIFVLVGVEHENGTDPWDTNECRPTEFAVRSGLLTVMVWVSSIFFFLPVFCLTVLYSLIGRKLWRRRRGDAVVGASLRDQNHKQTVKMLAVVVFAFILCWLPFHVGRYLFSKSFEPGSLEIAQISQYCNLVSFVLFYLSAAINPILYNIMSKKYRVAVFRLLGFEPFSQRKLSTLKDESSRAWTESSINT
Chain of Ghrelin receptor (Q92847 whole entry): as above

Compound	Ki [1, 3] [nM]	IC50 [2, 4] [nM]	Emax [2] [%]	further results
COc1cccc2c(C(=O)NCc3cccc(C)c3)cn(CCCN3C4CCC3CC(Oc3ccc(Cl)cc3)C4)c12 (stereo not drawn)	50.1	0.631	92	
COc1cccc2c(C(=O)C3CC3)cn(CCCN3CCCN(Cc4ccccc4Cl)CC3)c12	7.94	0.794	99	
CCCCC1CCN(CCCn2cc(C(=O)NCc3cccc(Cl)c3)c3cccc(OC)c32)CC1			94	Ki ([1]; Binding pKi): 50.1 nM; IC50 ([2]; RSAT pIC50): 3.98 nM
CCCCC1CCN(CCCn2cc(C(=O)C3CC3)c3cccc(OC)c32)CC1	398	3.98	95	
CCCCC1CCN(CCCn2cc(C(=O)c3ccccc3)c3cccc(OC)c32)CC1	200	5.01	98	
CC(=O)c1cn(CCCN2CCC(c3nc4ccccc4s3)CC2)c2c(Cl)cccc12	398	5.01	117	
COc1ccccc1C1CCN(CCCn2cc(C(=O)C3CC3)c3cccc(OC)c32)CC1	158	5.01	102	
COc1cccc2c(C(=O)NCC(C)C)cn(CCCN3C4CCC3CC(CC(=O)c3ccccc3)C4)c12 (stereo not drawn)	50.1	7.94	145	
COc1cccc2c(C(=O)NCc3cccc(C)c3)cn(CCCN3CCC(Oc4ccc(Cl)cc4)CC3)c12	126	7.94	115	
COc1cccc2c(C(=O)C3CC3)cn(CCCN3C4CCC3CC(CC(=O)c3ccc(Cl)cc3)C4)c12 (stereo not drawn)	39.8	7.94	70	
CC(=O)c1cn(CCCN2C3CCC2CC(CC(=O)c2ccccc2)C3)c2c(Br)cccc12 (stereo not drawn)	100	7.94	111	
COc1cccc2c(C(=O)NCc3cccc(C)c3)cn(CCCN3C4CCC3CC(CC(=O)c3ccc(Cl)cc3)C4)c12 (stereo not drawn)	15.8	10	110	
COc1cccc2c(C(=O)NCc3cccc(C)c3)cn(CCCN3CCC(Oc4ccccc4Cl)CC3)c12	79.4	12.6	96	
COc1cccc2c(C(=O)NCc3cccc(C)c3)cn(CCCN3CCCN(CCc4ccccc4)CC3)c12	15.8	12.6	110	
COc1cccc2c(C(=O)NCc3cccc(C)c3)cn(CCCN3CCCN(Cc4ccccc4Cl)CC3)c12	79.4	15.8	119	
COc1cccc2c(C(=O)NCc3cccc(C)c3)cn(CCCN3CCCN(Cc4ccc(F)cc4)CC3)c12	100	15.8	129	
COc1cccc2c(C(C)=O)cn(CCCN3CCC(N(C4CC4)S(=O)(=O)c4ccccc4)CC3)c12	2510	15.8	105	
COc1cccc2c(C(=O)c3ccccc3)cn(CCCN3CCCN(CCc4ccccc4)CC3)c12	25.1	15.8	124	
COc1cccc2c(C(=O)NCc3cccc(Cl)c3)cn(CCCN3CCCN(CCc4ccccc4)CC3)c12	158	20	125	
COc1cccc2c(C(=O)NCc3cccc(C)c3)cn(CCCN3[C@@H]4CC[C@H]3CC(CC(=O)c3ccccc3)C4)c12 (stereo partly drawn)	63.1			
CC(=O)c1c(C)n(CCCN2C3CCC2CC(CCc2ccccc2)C3)c2c(Br)cccc12 (stereo not drawn)				Ki [1, 5]: 200 nM
O=C(c1cn(CCCN2C3CCC2CC(CCc2ccc(Cl)cc2)C3)c2ncccc12)C(F)(F)F (stereo not drawn)				Ki [1, 5]: 251 nM
CCc1cccc2c(C(C)=O)cn(CCCN3C4CCC3CC(CC(=O)c3ccc(Cl)cc3)C4)c12 (stereo not drawn)				Ki [1, 5]: 501 nM
CC(=O)c1c(C)n(CCCN2CCC(CCOc3ccc(Cl)cc3)CC2)c2c(Br)cccc12				Ki [1, 5]: 631 nM
CC(=O)c1cn(CCCN2C3CCC2CC(Oc2ccccc2Cl)C3)c2c(Br)cccc12 (stereo not drawn)			65	

Compound	Ki [1, 3] [nM]	IC50 [2, 4] [nM]	Emax [2] [%]	further results
COc1cccc2c(C(=O)C3CC3)cn(CCCN3CCCC(Cc4ccccc4Cl)C3)c12 (stereo not drawn)			28	
CC(=O)c1cn(CCCN2CCC3(CC2)CC(=O)c2ccccc2O3)c2c(Cl)cccc12			40	
CC(=O)c1cn(CCCN2CCCC(Oc3ccc(Cl)cc3)C2)c2c(Cl)cccc12 (stereo not drawn)			7	
CC(=O)c1cn(CCCN2CCCC(Cc3ccccc3Cl)C2)c2c(Cl)cccc12 (stereo not drawn)			47	
CC(=O)c1cn(CCCN2CCC(Cc3ccccc3Cl)C2)c2c(Cl)cccc12 (stereo not drawn)			37	
CC(=O)c1cn(CCCN2C3CCC2CC(Oc2ccccc2Cl)C3)c2c(Cl)cccc12 (stereo not drawn)			60	
COc1cccc2c(C(=O)c3ccccc3)cn(CCCN3CCCC(Oc4ccc(Cl)cc4)C3)c12 (stereo not drawn)			48	
COc1cccc2c(C(=O)NCc3cccc(C)c3)cn(CCCN3CCCC(Oc4ccc(Cl)cc4)C3)c12 (stereo not drawn)			14	
COc1cccc2c(C(=O)NCc3cccc(Cl)c3)cn(CCCN3CCCC(Oc4ccc(Cl)cc4)C3)c12 (stereo not drawn)			31	
CC(=O)c1c(C)n(CCCNCCOc2ccccc2)c2c(Br)cccc12			5	
CCc1cccc2c(C(C)=O)cn(CCCN3CCN(CCOc4ccc(Cl)c5ccccc45)CC3)c12			29	
CC(=O)c1cn(CCCNC2Cc3ccccc3C2)c2c(C#N)cccc12			6	
CC(=O)c1cn(CCCN2CCCC(Oc3ccc(Cl)cc3)C2)c2c(C)cccc12 (stereo not drawn)			-2	
COc1cccc2c(C(=O)NCC(C)C)cn(CCCN3CCCC(Oc4ccc(Cl)cc4)C3)c12 (stereo not drawn)			9	
COc1cccc2c(C(C)=O)cn(CCCN3CCC(Oc4ccc(F)cc4)CC3)c12 [drawing 241]				IC50 [2, 6]: 2.51 nM; RSAT Eff(%) [2, 7]: 104%
COc1cccc2c(C(C)=O)cn(CCCN3CCC(Oc4ccc(F)cc4)CC3)c12 [drawing 256]		3.98	119	
CC(=O)c1cn(CCCN2CCC(c3nc4ccccc4s3)CC2)c2ccccc12 [drawing 462]				IC50 [2, 6]: 100 nM; Emax [2, 7]: 115%
CC(=O)c1cn(CCCN2CCC(c3nc4ccccc4s3)CC2)c2ccccc12 [drawing 466]				IC50 [2, 6]: 126 nM; RSAT Eff(%) [2, 7]: 99%
CC(=O)c1cn(CCCN2CCC(Oc3ccccc3Cl)CC2)c2ccccc12 [drawing 499]				Emax [2, 7]: 105%
CC(=O)c1cn(CCCN2CCC(Oc3ccc(F)cc3)CC2)c2ccccc12.O=C(O)C(=O)O [drawing 520]				IC50 [2, 6]: 251 nM; RSAT Eff(%) [2, 7]: 128%
COc1ccccc1C1CCN(CCCn2cc(C(C)=O)c3ccccc32)CC1 [drawing 533]				IC50 [2, 6]: 316 nM; Emax [2, 7]: 109%
O=C(NCc1cccc(Cl)c1)c1cn(CCCN2CCC(Oc3ccc(F)cc3)CC2)c2ccccc12.O=C(O)C(=O)O [drawing 596]				RSAT Eff(%) [2]: 142%
COc1cccc2c(C(=O)NCC(C)C)cn(CCCN3CCC(c4nc5ccccc5s4)CC3)c12 [drawing 706]	501			
CCCOC1CCN(CCCn2cc(C(C)=O)c3cccc(OC)c32)CC1 [drawing 713]				Ki [1, 5]: 1260 nM
